In patent US10221171B2, “Oxathiazole thiazolium Hsp 70 inhibitors” (THE REGENTS OF THE UNIVERSITY OF CALIFORNIA, priority 2015, dated 2019):
Where two headings read alike, the source gives them in different places. Values belong to the compound of their own block, whether it stands above or below them.

Key:
[1] = system: Xenografts of MCF7 cells; assay: Hsp70 client destabilization in MCF7 xenografts, western blot; format: in vivo; details: 5 mg/kg/day for three days, western blot of tumors
Experimental: Xenografts of MCF7 cells were treated by delivery of compound in saline 5 mg/kg/day dosed for three days, after which tumors were harvested for western blot. Results from three separate animals are shown.

[2] = Tolerability in mice based on weight; format: in vivo; details: daily i.p. 5 mg/kg/day, male CD1 mice
Experimental: Analogs were delivered daily to male CD1 mice by i.p. at 5 mg/kg/day. Five mice per group. Error bars represent SEM.

[3] = system: MCF-7; assay: MTT cell viability assay, MCF-7; format: cell-based; details: for IC50: read-out: IC50/μM MCF-7; for EC50: Table 2
[4] = system: multiple myeloma cell lines; assay: MTT cell viability in multiple myeloma cell lines; format: cell-based; details: cell viability after 48 hrs, percentage of solvent control (1% DMSO)
From the text: Results are shown as a percentage of a solvent control (1% DMSO). Results are the average of experiments performed in triplicate. Error bars represent SEM.

[5] = system: MEF (C57BL/6); assay: MTT cell viability assay, MEF (C57BL/6); format: cell-based; details: for IC50 / EC50: Mus musculus; for EC50: Table 2; for SI MEF/MCF-7: ratio of EC50 MEF to EC50 MCF-7
[6] = system: Hsp70 clients in MCF7 cells; assay: Western blot of Hsp70 clients in MCF7 cells; format: cell-based; details: 24 hrs
Experimental: Cells were treated for 24 hrs with compound, lysed and Western blots performed.

[7] = Microsomal stability; format: in vitro ADME
[8] = system: IMR-90; assay: Cell viability, IMR-90; format: cell-based; details: for EC50: Homo sapiens, IMR-90, Table 2; for SI IMR-90/MCF-7: ratio of EC50 IMR-90 to EC50 MCF-7
Experimental: Cells were then treated with compound at various concentrations in 0.2 mL media. After the 72-hour incubation period, cells were washed in PBS (3×100 μL), and 10 μL MTT reagent was added with 100 μL fresh media. Cells were then incubated for 4 hr in a humidified chamber at 37° C. with 5% CO2. Insoluble formazan crystals were solubilized by addition of 0.1 mL detergent solution (4 hr at room temp., dark). Resulting colored solutions were then quantified at an absorbance of 570 nm.

[9] = system: MDA-MB-231; assay: MTT cell viability assay, MDA-MB-231; format: cell-based; details: Homo sapiens
[10] = Pharmacokinetics in CD1 mice, single i.p. injection, plasma by HPLC; format: in vivo
Experimental: A single injection of compound was delivered to CD1 mice by i.p. and the plasma collected at the indicated times. Compound levels were calculated by HPLC, using a standard curve.

[11] = Solubility; format: physicochemical
[12] = MTT, 72-hour incubation, read-out: IC50/μM MEF (C57BL/6)
[13] = Homo sapiens, MCF7, MTT, 72-hour incubation
[14] = Homo sapiens, MCF7, 72 h, MTT, 72-hour incubation
[15] = 72 h, read-out: IC50/μM MEF (C57BL/6), MTT, 72-hour incubation
[16] = MDA-MB-231, 72 h, 72-hour incubation

SMILES: CCc1ccc2c(c1)S/C(=c1/s/c(=C\c3scc[n+]3Cc3ccccc3C(=O)OC)n(CC)c1=O)N2C.[Cl-] [JG-345]
- destabilization of Hsp70 clients in vivo [1]: destabilized Hsp70 clients in vivo
- tolerated in mice, based on weight [2]: tolerated in mice
- IC50 ([3]; Homo sapiens, MCF7, 72 h): 0.049 ± 0.003 µM
- EC50 ([3]; Homo sapiens, MCF7): 0.049 ± 0.003 µM
- anti-proliferative activity against multiple myeloma cell lines [4]: anti-proliferative activity
- IC50 [5, 12]: 1 ± 0.1 µM
- EC50 [5]: 1 ± 0.1 µM
- destabilization of Hsp70 clients (c-Raf and other clients) [6]: destabilize c-Raf and other clients
- Microsomal min [7]: 25 min
- EC50 [8]: 3.2 ± 0.7 µM
- IC50 ([9]; MDA-MB-231, 72-hour incubation): 0.046 ± 0.006 µM
- t1/2/h [10]: 11.4 h

SMILES: CCn1c(=O)/c(=C2\Sc3cc(SC)ccc3N2C)s/c1=C\c1scc[n+]1Cc1ccccc1C(F)(F)F.[Cl-] [JG-312]
- IC50 [3, 13]: 0.1 ± 0.01 µM
- EC50 ([3]; Homo sapiens, MCF7): 0.1 ± 0.01 µM
- solubility [11]: 16 µM
- IC50 [5, 12]: 3.2 ± 0.2 µM
- EC50 [5]: 3.2 ± 0.2 µM
- SI MEF/MCF-7 [5]: 32
- Microsomal min [7]: 23 min
- EC50 [8]: > 10 µM
- SI IMR-90/MCF-7 [8]: >100
- IC50 ([9]; MDA-MB-231, 72-hour incubation): 0.14 ± 0.01 µM

SMILES: CCc1ccc2c(c1)S/C(=c1/s/c(=C\c3scc[n+]3Cc3ccc(C(F)(F)F)o3)n(CC)c1=O)N2C.[Cl-] [JG-300]
- IC50 [3, 14]: 0.11 ± 0.01 µM
- EC50 ([3]; Homo sapiens, MCF7): 0.11 ± 0.01 µM
- IC50 [5, 15]: 1.4 ± 0.06 µM
- EC50 [5]: 1.4 ± 0.1 µM
- Microsomal min [7]: 37 min
- EC50 [8]: 3.3 ± 0.3 µM
- IC50 ([9]; MDA-MB-231, 72-hour incubation): 0.1 ± 0.01 µM

SMILES: CCn1c(=O)/c(=C2\Sc3cc(Cl)ccc3N2C)s/c1=C\c1scc[n+]1Cc1ccc(Br)s1.[Cl-] [JG-231, reference compound]
- tolerated in mice, based on weight [2]: tolerated in mice
- EC50 [3]: 0.12 ± 0.01 µM
- solubility [11]: 16 µM
- destabilization of Hsp70 clients (c-Raf and other clients) [6]: destabilize c-Raf and other clients
- Microsomal min [7]: >60 min

SMILES: CCn1c(=O)/c(=C2\Sc3cc(Br)ccc3N2C)s/c1=C\c1scc[n+]1Cc1ccc(C(F)(F)F)o1.[Cl-] [JG-294]
- tolerated in mice, based on weight [2]: tolerated in mice
- IC50 ([3]; Homo sapiens, MCF7, 72 h): 0.1 ± 0.01 µM
- EC50 ([3]; Homo sapiens, MCF7): 0.1 ± 0.01 µM
- IC50 [5, 15]: 3.5 ± 0.4 µM
- EC50 [5]: 3.5 ± 0.4 µM
- Microsomal min [7]: >60 min
- EC50 [8]: 9.8 ± 2 µM
- IC50 ([9]; MDA-MB-231, 72-hour incubation): 0.18 ± 0.01 µM
- AUC0-∞/nM × h [10]: 2.429 µM·h
- Tmax ([10]; mouse, ip): 2 h
- half-life ([10]; mouse, ip, read-out: t1/2/h (converted)): 29.8 h

SMILES: CCn1c(=O)/c(=C2\Sc3cc(SC)ccc3N2C)s/c1=C\c1scc[n+]1Cc1ccccc1OC(F)(F)F.[Cl-] [JG-311]
- IC50 [3, 13]: 0.098 ± 0.009 µM
- EC50 ([3]; Homo sapiens, MCF7): 0.098 ± 0.009 µM
- solubility [11]: 16 µM
- IC50 [5, 12]: 2 ± 0.1 µM
- EC50 [5]: 2 ± 0.1 µM
- SI MEF/MCF-7 [5]: 20
- Microsomal min [7]: 22 min
- EC50 [8]: 3.5 ± 0.6 µM
- SI IMR-90/MCF-7 [8]: 35
- IC50 ([9]; MDA-MB-231, 72-hour incubation): 0.14 ± 0.01 µM

SMILES: CCn1c(=O)/c(=C2\Sc3cc(SC)ccc3N2C)s/c1=C\c1scc[n+]1Cc1ccccc1SC(F)(F)F.[Cl-] [JG-356]
- IC50 [3, 13]: 0.089 ± 0.006 µM
- EC50 ([3]; Homo sapiens, MCF7): 0.089 ± 0.006 µM
- solubility [11]: 16 µM
- IC50 [5, 12]: 1.9 ± 0.1 µM
- EC50 [5]: 1.9 ± 0.1 µM
- SI MEF/MCF-7 [5]: 21
- Microsomal min [7]: 23 min
- EC50 [8]: 1.5 ± 0.1 µM
- SI IMR-90/MCF-7 [8]: 16
- IC50 ([9]; MDA-MB-231, 72-hour incubation): 0.09 ± 0.005 µM

SMILES: CCn1c(=O)/c(=C2\Sc3cc(C)ccc3N2C)s/c1=C\c1scc[n+]1C(C)c1ccccc1 (centres unmarked) [JG-318]
- IC50 [3, 13]: 0.16 ± 0.03 µM
- IC50 [5, 12]: 1.1 ± 0.1 µM
- IC50 ([9]; MDA-MB-231, 72-hour incubation): 0.11 ± 0.01 µM

SMILES: CCn1c(=O)/c(=C2\Sc3cc(Cl)ccc3N2C)s/c1=C\c1scc[n+]1Cc1ccnc(Cl)c1 [JG-257]
- IC50 [3, 13]: > 5 µM
- IC50 [5, 12]: 1.1 ± 0.1 µM
- IC50 [9, 16]: 7.2 ± 0.8 µM

SMILES: CCn1c(=O)/c(=C2\Sc3cc(Cl)ccc3N2C)s/c1=C\c1scc[n+]1Cc1ccccc1C(=O)O [JG-316]
- IC50 [3, 13]: > 20 µM
- IC50 [5, 12]: > 10 µM
- IC50 ([9]; MDA-MB-231, 72-hour incubation): > 20 µM

SMILES: CCn1c(=O)/c(=C2\Sc3cc(Cl)ccc3N2C)s/c1=C\c1scc[n+]1Cc1ccc(Cl)cc1 [JG-256]
- IC50 [3, 13]: 0.72 ± 0.06 µM
- IC50 [5, 12]: 2.2 ± 0.1 µM
- IC50 ([9]; MDA-MB-231, 72-hour incubation): 1.1 ± 0.1 µM

SMILES: CCn1c(=O)/c(=C2\Sc3cc(Cl)ccc3N2C)s/c1=C\c1scc[n+]1Cc1c(Cl)cccc1Cl [JG-337]
- IC50 [3, 14]: 0.16 ± 0.01 µM
- IC50 [5, 15]: 1.4 ± 0.1 µM
- IC50 [9, 16]: 0.16 ± 0.01 µM

SMILES: CCn1c(=O)/c(=C2\Sc3cc(Br)ccc3N2C)s/c1=C\c1scc[n+]1Cc1ccsc1 [JG-278]
- IC50 [3, 13]: 0.39 ± 0.06 µM
- IC50 [5, 12]: 3.4 ± 0.2 µM
- IC50 ([9]; MDA-MB-231, 72-hour incubation): 0.23 ± 0.04 µM

SMILES: CCn1c(=O)/c(=C2\Sc3cc(OC)ccc3N2C)s/c1=C\c1scc[n+]1Cc1ccccc1SC(F)(F)F [JG-350]
- IC50 [3, 13]: 0.059 ± 0.007 µM
- IC50 [5, 12]: 1.2 ± 0.1 µM
- IC50 ([9]; MDA-MB-231, 72-hour incubation): 0.1 ± 0.01 µM

SMILES: CCn1c(=O)/c(=C2\Sc3cc(Cl)ccc3N2C)s/c1=C\c1scc[n+]1[C@H](C)c1ccccc1 [JG-339]
- IC50 [3, 13]: 0.37 ± 0.04 µM
- IC50 [5, 12]: 1.5 ± 0.08 µM
- IC50 ([9]; MDA-MB-231, 72-hour incubation): 0.19 ± 0.02 µM

SMILES: CCn1c(=O)/c(=C2\Sc3cc(SC)ccc3N2C)s/c1=C\c1scc[n+]1Cc1ccccc1Cl [JG-309]
- IC50 [3, 14]: 0.15 ± 0.01 µM
- IC50 [5, 15]: 0.75 ± 0.05 µM
- IC50 [9, 16]: 0.13 ± 0.01 µM

Continued, in another order:

- EC50 [3]: 0.71 ± 0.22 µM
- solubility [11]: 31 µM
- Microsomal min [7]: 37 min
SMILES: CCn1c(=O)/c(=C2\Sc3cc(Cl)ccc3N2C)s/c1=C\c1scc[n+]1Cc1ccccc1.[Cl-] [JG-98, reference compound]

- IC50 [3, 13]: > 5 µM
- IC50 ([9]; MDA-MB-231, 72-hour incubation): > 20 µM
SMILES: CCn1c(=O)/c(=C2\Sc3cc(F)ccc3N2C)s/c1=C\c1scc[n+]1Cc1c(C)noc1C [JG-268]
- IC50 [5, 12]: > 10 µM

- IC50 [3, 13]: 0.19 ± 0.02 µM
- IC50 ([9]; MDA-MB-231, 72-hour incubation): 0.23 ± 0.01 µM
SMILES: CCn1c(=O)/c(=C2\Sc3ccc(C)cc3N2C)s/c1=C\c1scc[n+]1Cc1c(C)cccc1C [JG-362]
- IC50 [5, 12]: 2.3 ± 0.1 µM

- IC50 [3, 13]: 0.36 ± 0.02 µM
- IC50 ([9]; MDA-MB-231, 72-hour incubation): 0.77 ± 0.1 µM
SMILES: CCn1c(=O)/c(=C2\Sc3cc(F)ccc3N2C)s/c1=C\c1scc[n+]1Cc1cccc(Cl)c1 [JG-272]
- IC50 [5, 12]: 0.62 ± 0.03 µM

- IC50 [3, 13]: 0.067 ± 0.005 µM
- IC50 ([9]; MDA-MB-231, 72-hour incubation): 0.084 ± 0.012 µM
SMILES: CCn1c(=O)/c(=C2\Sc3ccc(C)cc3N2C)s/c1=C\c1scc[n+]1Cc1ccccc1SC(F)(F)F [JG-363]
- IC50 [5, 12]: 2.1 ± 0.1 µM

- IC50 [3, 13]: 0.27 ± 0.02 µM
- IC50 ([9]; MDA-MB-231, 72-hour incubation): 0.14 ± 0.01 µM
SMILES: CCn1c(=O)/c(=C2\Sc3cc(C)ccc3N2C)s/c1=C\c1scc[n+]1Cc1ccc(C(F)(F)F)o1 [JG-286]
- IC50 [5, 12]: 5 ± 0.6 µM

- IC50 [3, 13]: 0.11 ± 0.01 µM
- IC50 ([9]; MDA-MB-231, 72-hour incubation): 0.073 ± 0.007 µM
SMILES: CCc1ccc2c(c1)S/C(=c1/s/c(=C\c3scc[n+]3Cc3ccccc3OC)n(CC)c1=O)N2C [JG-346]
- IC50 [5, 12]: 0.71 ± 0.03 µM
